{"source": "paper PMC10511816", "about": "(The Journal of Biological Chemistry, 2023)", "key": {"XO": {"target": "XO (Bos taurus, UniProt P80457)", "sequence (P80457 whole entry)": "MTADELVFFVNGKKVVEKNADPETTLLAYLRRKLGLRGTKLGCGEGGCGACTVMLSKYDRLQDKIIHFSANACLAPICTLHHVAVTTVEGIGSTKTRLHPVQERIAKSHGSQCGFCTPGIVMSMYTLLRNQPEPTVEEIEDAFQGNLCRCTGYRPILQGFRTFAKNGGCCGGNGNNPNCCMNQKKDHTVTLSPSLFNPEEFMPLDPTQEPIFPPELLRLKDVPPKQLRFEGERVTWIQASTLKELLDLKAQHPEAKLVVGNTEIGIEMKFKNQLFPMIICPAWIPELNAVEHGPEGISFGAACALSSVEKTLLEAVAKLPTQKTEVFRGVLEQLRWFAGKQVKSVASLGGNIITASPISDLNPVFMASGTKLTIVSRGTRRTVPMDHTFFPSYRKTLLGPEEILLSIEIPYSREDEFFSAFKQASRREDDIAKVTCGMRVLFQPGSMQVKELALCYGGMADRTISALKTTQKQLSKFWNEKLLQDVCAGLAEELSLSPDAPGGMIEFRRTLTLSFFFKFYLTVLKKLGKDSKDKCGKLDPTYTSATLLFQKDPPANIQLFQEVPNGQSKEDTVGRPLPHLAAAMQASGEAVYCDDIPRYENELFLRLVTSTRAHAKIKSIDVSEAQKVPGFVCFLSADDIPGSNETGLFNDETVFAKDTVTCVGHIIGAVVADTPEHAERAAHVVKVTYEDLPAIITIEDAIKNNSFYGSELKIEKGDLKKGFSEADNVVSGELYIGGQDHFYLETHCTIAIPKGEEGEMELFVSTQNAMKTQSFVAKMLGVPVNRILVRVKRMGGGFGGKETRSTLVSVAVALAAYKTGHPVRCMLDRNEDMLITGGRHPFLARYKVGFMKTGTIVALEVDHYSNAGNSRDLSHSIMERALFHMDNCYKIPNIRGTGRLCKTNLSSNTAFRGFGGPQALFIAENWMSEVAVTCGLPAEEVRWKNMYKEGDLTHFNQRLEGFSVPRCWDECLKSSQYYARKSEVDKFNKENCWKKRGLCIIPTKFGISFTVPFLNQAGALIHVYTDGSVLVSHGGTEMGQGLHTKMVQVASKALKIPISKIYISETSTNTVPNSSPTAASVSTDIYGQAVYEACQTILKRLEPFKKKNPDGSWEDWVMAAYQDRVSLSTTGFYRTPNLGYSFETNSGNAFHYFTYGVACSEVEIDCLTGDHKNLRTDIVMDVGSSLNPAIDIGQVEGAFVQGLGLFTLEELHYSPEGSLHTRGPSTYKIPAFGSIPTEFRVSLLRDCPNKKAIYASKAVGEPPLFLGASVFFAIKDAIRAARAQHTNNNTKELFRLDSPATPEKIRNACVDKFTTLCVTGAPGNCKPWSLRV", "details": "3 μM allopurinol, 2 μM xanthine, 2.56 nM XO, pH 7.4, 37 °C"}, "[1]": {"test_system": "hypoxanthine-guanine phosphoribosyltransferase (HGPRT)", "details": "cited from earlier work"}, "XOR [2]": {"target": "XOR", "details": "read-out: Ki for the xanthine to uric acid reaction; steady-state kinetic analysis; cited from earlier work"}, "XO type enzyme": {"target": "T1, XO type enzyme (Bos taurus, UniProt P80457)", "T1 construct": "Bovine milk was obtained from the animal farm of the Nippon Veterinary and Life Science University; from tissue; host or cells: bovine milk", "T1 sequence (P80457 whole entry)": "as above", "assay": "half-life of the Ered•oxypurinol complex (activity recovery)", "assay_type": "biochemical, bovine", "method": "We next examined the half-life of the Ered•oxypurinol complex under more physiological conditions.\nThe main figure plots activity (%) against time.\nUric acid production was measured at 295 nm with UV-1800 Spectrophotometer at 25 °C. The activity recovery was followed overtime until the activity to flavin ratio reached approximately 200, indicating full reactivation."}, "[3]": {"target": "T2, Purine nucleoside phosphorylase (PNP) (Homo sapiens, UniProt P00491)", "T2 construct": "purchased Sigma-Aldrich; host or cells: E. coli", "T2 sequence (P00491 1-289)": "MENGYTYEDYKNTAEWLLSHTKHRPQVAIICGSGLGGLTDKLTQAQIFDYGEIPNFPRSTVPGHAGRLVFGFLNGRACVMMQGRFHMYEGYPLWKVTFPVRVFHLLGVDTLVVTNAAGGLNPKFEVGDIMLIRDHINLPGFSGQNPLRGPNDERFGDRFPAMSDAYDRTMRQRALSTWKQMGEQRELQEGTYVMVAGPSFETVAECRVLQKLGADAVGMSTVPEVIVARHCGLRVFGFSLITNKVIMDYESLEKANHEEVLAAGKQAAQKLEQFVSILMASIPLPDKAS", "assay": "PNP activity assay (inosine degradation, HPLC)", "assay_type": "biochemical", "details": "human recombinant PNP", "from_the_text": "Plasma allopurinol never reaches that concentration, but oxypurinol concentrations could ([34], [35]). Although oxypurinol has been reported to have a stronger inhibitory effect than allopurinol ([32], [36]), the results were obtained prior to several reports on the cooperativity of PNP ([37]). […] This nonideal behavior may be a manifestation of the well-established allosteric properties of PNP ([37]).\nPurine nucleoside phosphorylase (human, recombinantly expressed in E. coli) was purchased from Sigma-Aldrich. The reaction solution for inosine hydrolysis consisted of 50 mM KPB (pH 7.4), with varying concentrations of inosine and oxypurinol.\nA295 indicates the concentration of uric acid yielded by XOR. […] A295 indicates the concentration of uric acid yielded by XOR. Figure S2. The XOR inhibition mode of oxypurinol.A–G, Lineweaver-Burk plots were generated to visualize data and estimated the inhibition patterns. Data are representative of least two independent experiments. […] The same as in A except that 1.23 nM XDH was used instead of XO and 500 μM NAD^+ was added to the reaction solution. […] The same as in D except that hypoxanthine was used instead of xanthine. […] The same as in D except that febuxostat was used instead of oxypurinol. […] The same as in F except that hypoxanthine was used instead of xanthine. Figure S3. […] Hypoxanthine, xanthine, and uric acid were measured by HPLC."}, "XOR [4]": {"test_system": "XOR", "details": "pH 8.5 and 25 °C; cited from earlier work"}, "xanthine oxidase": {"test_system": "xanthine oxidase", "set-up": "method as in Graham et al. 64", "details": "ref Graham et al. 64; cited from earlier work"}}, "note": "Several values for one entry are separate records, joined by “and”; a condition that tells them apart may be missing. Equal values may be shown once.", "data": [{"smiles": "Oc1ncnc2[nH]ncc12", "note": "[Allopurinol]", "values": [{"measurement": "immediate accumulation of oxypurinol", "setting": "XO", "result": 0.5, "unit": "µM"}, {"measurement": "time at which xanthine was completely converted to uric acid", "setting": "XO", "result": 300, "unit": "min"}, {"measurement": "time for which uric acid production was stopped", "setting": "XO", "result": "up to 60 min"}, {"measurement": "substrate or inhibitor of HGPRT", "setting": "[1]", "result": "is a substrate"}, {"measurement": "Ki", "setting": "XOR [2]", "result": 100, "unit": "nM"}]}, {"smiles": "O=c1[nH]c(=O)c2c[nH]nc2[nH]1", "note": "[Oxypurinol]", "values": [{"measurement": "half-life of the Ered•oxypurinol complex", "setting": "XO type enzyme; pH 7.4, 25 °C", "result": "9.2 h and 9.198 h"}, {"measurement": "half-life of the Ered•oxypurinol complex", "setting": "XO type enzyme; pH 7.4, 37 °C", "result": "1.17 h and 1.22 h"}, {"measurement": "half-life of the Ered•oxypurinol complex", "setting": "XO type enzyme; pH 8.5, 37 °C", "result": "1.17 h and 1.18 h"}, {"measurement": "inhibition of PNP", "setting": "[3]", "result": "weakly but allosterically inhibits PNP"}, {"measurement": "mode of inhibition for inosine", "setting": "[3]; 50 mM KPB pH 7.4, 0-1000 μM oxypurinol", "result": "competitive"}, {"measurement": "half-life for reoxidation / dissociation of the Ered•oxypurinol complex", "setting": "XOR [4]", "result": 5, "unit": "h"}, {"measurement": "oxypurinol concentration at which xanthine oxidase is maximally inhibited", "setting": "xanthine oxidase", "result": 33.75, "unit": "µM"}]}]}
